Data: US11459339B2, “Biaryl derivative, preparation method thereof and pharmaceutical application thereof” (Abbisko Therapeutics Co., Ltd., priority 2018, dated 2022)

Assays:
[1] = Pharmacokinetic assay in mice, per oral administration; type: in vivo; conditions: ICR mice
Source text: C. Pharmacokinetic Assay in Mice
The purpose of this study was to study the pharmacokinetic behaviors of some compounds of the present invention, and administration routes were: per oral administration (PO) to ICR mice:
The compounds used in this test came from the compounds of the specific examples of the present invention.
ICR mice male N=3 original source: Shanghai Sippr-BK Laboratory Animal Co. Ltd.
2.3 Preparation and Administration of Medicaments
The compounds were weighed, and dissolved in solvent of 0.5% SDS+0.5% CMCNa. The mixture solutions were mixed well by shaking and ultrasonic treatment to obtain colorless clear solutions. The solutions were orally administered to nine mice after an overnight fast. The dosage of administration was 10 mg/kg (or 30 mg/kg).
With about 90 μL/time point, blood was drawn from the submaxillary vein, and heparin sodium was added for anticoagulation. The blood samples were placed onto the ice, and were centrifuged (centrifugation conditions: 8000 r/min, 6 min, 2-8° C.) within 1 hr to obtain plasmas. The time points for blood sampling were at 0 hr, 0.25 hr, 0.5 hr, 1 hr, 2 hrs, 4 hrs, 6 hrs, 8 hrs and 24 hrs after administration. The samples were stored in a refrigerator at −20° C.
40 μL of plasma sample was added to 160 μL of cold acetonitrile containing an internal standard, and the mixture solution was vortexed for 3 min and centrifuged at 11,000 r/min for 5 min. 100 μL of supernate was taken and added to 100 μL of water, and 5 μL of the sample was taken and analyzed by LC/MS/MS. Only the original compounds were analyzed for examples 1, 3, 5, 8, 46 and 141 (for results, see table 2); and both the original compounds and possible products of ester hydrolysis, namely example 2, 27, 65 and 105, were analyzed for examples 4, 26, 64 and 104 (for results, see table 3).

[2] = biological target: interaction between PD-1 and PD-L1 expressed on cell surfaces (Homo sapiens (Human), UniProt Q9NZQ7); assay: Jurkat reporter gene cellular assay (Jurkat/NF-κB-luc/PD1 cells cocultured with Raji-PD-L1 cells, OKT-3 stimulation); type: cell-based; conditions: NF-κB-luc reporter activation fold, 6 hrs; read-out: Cell Activity EC50
Procedure, shortened: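 Jurkat cells stably expressing human PD-1 and NF-κB-luciferase were cocultured with Raji cells stably expressing human PD-L1 under OKT-3 stimulation, with compound present. Luminescence was read after 6 h.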

[3] = biological target: interaction between PD-1 and PD-L1 (Homo sapiens (Human), UniProt Q9NZQ7); assay: PD1-PDL1 HTRF binding activity test (Cisbio PD-1/PD-L1 binding assay kit); conditions: read-out: PD1-PDL1 HTRF Binding Activity IC50
interaction between PD-1 and PD-L1, sequence (Q9NZQ7 19-238): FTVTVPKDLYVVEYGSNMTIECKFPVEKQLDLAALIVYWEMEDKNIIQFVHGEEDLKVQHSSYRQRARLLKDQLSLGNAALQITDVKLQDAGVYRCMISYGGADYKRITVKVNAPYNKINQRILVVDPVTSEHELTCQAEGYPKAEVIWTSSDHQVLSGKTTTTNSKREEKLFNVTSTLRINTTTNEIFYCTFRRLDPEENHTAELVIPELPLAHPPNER

interaction between PD-1 and PD-L1 expressed on cell surfaces, sequence (Q9NZQ7 19-290): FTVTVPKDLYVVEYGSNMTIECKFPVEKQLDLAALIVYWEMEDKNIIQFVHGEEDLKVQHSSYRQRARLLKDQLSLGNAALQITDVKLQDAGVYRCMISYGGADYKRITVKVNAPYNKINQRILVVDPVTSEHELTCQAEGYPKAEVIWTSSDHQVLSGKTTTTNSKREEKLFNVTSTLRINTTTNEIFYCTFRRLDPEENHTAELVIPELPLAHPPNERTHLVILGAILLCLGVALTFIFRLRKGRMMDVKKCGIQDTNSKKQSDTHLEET

| SMILES | Cmax ([1]; Table 3, PO 10 mpk, original compound (ester 104) analyzed) | ester hydrolysis in the bodies of the mice after oral administration ([1]; oral administration) | EC50 [2] | IC50 [3] | Cmax ([1]; PO 10 mg/kg, plasma, original compound analyzed) |
| --- | --- | --- | --- | --- | --- |
| COC(=O)[C@@H](CO)NCc1cnc(C(=O)Nc2cccc(-c3cccc(NC(=O)c4cc(C5CC5)c(CN[C@H](CO)C(=O)OC)cn4)c3C)c2C)cc1C1CC1 [Example 104] | BQL | rapidly became corresponding acids | 296 nM | 1.57 nM |  |
| COc1cc(C(=O)Nc2cccc(-c3cccc(NC(=O)c4cc(OC)c(CNCCO)cn4)c3Cl)c2C)ncc1CNCCO [Example 141, N,N′-(2-chloro-2′-methyl-[1,1′-biphenyl]-3,3′-diyl)bis(5-(((2-hydroxyethyl)amino)methyl)-4-methoxypicolinamide)] |  |  | 74 nM | 0.75 nM | BQL |
